In patent publication US20240261417A1, “SOS1 DEGRADING AGENT AND PREPARATION METHOD THEREFOR AND APPLICATION THEREOF” (SHANGHAI LEADINGTAC PHARMACEUTICAL CO. LTD., priority 2021, published 2024):

Target: T1, SOS1 protein (Homo sapiens, UniProt Q07889)
T1 sequence (Q07889 1-1333): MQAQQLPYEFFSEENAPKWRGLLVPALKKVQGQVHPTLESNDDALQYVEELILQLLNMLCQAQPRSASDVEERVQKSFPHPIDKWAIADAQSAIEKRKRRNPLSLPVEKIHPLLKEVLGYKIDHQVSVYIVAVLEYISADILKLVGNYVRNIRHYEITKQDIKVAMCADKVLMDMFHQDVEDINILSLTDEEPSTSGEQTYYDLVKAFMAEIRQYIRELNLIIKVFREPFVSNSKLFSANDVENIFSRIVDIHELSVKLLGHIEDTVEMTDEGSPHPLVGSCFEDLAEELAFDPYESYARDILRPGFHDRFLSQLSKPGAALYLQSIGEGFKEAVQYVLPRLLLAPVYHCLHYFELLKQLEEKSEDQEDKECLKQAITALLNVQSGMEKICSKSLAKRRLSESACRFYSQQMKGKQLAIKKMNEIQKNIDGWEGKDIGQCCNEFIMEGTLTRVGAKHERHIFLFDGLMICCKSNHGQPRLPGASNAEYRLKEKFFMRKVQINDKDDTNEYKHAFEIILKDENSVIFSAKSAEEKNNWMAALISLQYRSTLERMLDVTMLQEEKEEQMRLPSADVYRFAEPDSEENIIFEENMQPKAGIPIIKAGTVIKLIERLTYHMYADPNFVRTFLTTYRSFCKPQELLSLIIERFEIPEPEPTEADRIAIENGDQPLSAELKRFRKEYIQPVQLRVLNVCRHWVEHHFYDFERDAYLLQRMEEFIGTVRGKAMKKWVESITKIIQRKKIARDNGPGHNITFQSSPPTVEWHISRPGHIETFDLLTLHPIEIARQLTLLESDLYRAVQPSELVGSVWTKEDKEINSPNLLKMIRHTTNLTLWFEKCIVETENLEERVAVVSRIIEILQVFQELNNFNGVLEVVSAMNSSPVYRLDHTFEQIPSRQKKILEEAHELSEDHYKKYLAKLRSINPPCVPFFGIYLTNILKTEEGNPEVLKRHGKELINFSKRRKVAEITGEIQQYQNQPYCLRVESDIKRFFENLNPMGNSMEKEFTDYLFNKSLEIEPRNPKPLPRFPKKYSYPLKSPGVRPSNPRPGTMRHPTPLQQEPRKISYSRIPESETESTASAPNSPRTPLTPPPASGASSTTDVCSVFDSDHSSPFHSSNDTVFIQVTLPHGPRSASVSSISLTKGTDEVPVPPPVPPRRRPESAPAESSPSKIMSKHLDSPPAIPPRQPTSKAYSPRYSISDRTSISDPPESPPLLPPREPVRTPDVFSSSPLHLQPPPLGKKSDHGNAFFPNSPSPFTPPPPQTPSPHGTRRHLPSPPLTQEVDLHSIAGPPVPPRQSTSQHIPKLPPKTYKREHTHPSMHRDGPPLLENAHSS
Experiment: SOS1 degradation assay (Western blot), SW-620 cells
Type: cell-based
Design: host or cells: SW-620 (human cancer cell lines)
Conditions: 24 h; for DC50: read-out: SW620 (G12V) DC50; for Dmax: read-out: SW620 (G12V) Dmax
Protocol: The specific procedures were as follows:
0.95 mL of cells were seeded into each well of a 24-well cell culture plate to achieve a cell density of 5×10^5 cells/well; the cell plate was incubated in an incubator at 37° C. with 5% CO2 overnight. Then 50 μL of the compound solution after dilution was added to each of the wells with the corresponding cells, so that the final concentration of the compound was in a range of 0.03-3000 nM. […] After dosing, the cell plate was incubated in an incubator at 37° C. with 5% CO2 for 24 h. […] After the plate was left to stand on ice for 30 min, the protein lysate in each well was transferred to a 1.5 mL centrifuge tube and centrifuged at 15000 g for 20 min at 4° C. The cell lysate supernatant after centrifugation was cryopreserved at −80° C. for testing and was used for determining the degradation level of the SOS1 protein by a WB method. The concentration of total protein in the cell lysate supernatant was determined using the BCA Protein Quantification Kit (Tiangen, PA115-02).
The concentration of total protein in the cell lysate was determined by BCA. The total protein was adjusted to 0.5 μg/μL with PBS and 5× SDS-PAGE protein loading buffer (Beyotime, P0015L), incubated in a water bath at 100° C. for 15 min, incubated in an ice bath on ice for 5 min, centrifuged at 14000 g for 1 min at 4° C., and mixed well as a loading sample for WB. Protein electrophoresis was performed on a precast gel (KeyGEN, KGMGO10W15) with a loading volume of 10 μL (total protein: 5 μg) using a Tris-MOPS-SDS running solution (Adamas, P1598253) at a constant voltage of 120 V for 55 min. After the electrophoresis, the protein on the gel strip was transferred to a PVDF membrane at a constant current of 250 mA for 65 min. After the membrane transfer, the membrane was incubated in 1× QuickBlock blocking buffer (Beyotime, P0235) for 30 min at room temperature. […] The protein map was subjected to gray value analysis by the chemiluminescence imaging system from Clinx. […] Then the degradation rate was calculated by comparing the gray correction value with the gray correction value of the control group. Then nonlinear curve fitting was performed by GraphPad Prism 8 in the logarithmic concentration-inhibition rate to obtain the DC50 and Dmax values of the compounds.

| SMILES | DC50 | Dmax |
| --- | --- | --- |
| CNCc1ccccc1-c1csc([C@@H](C)Nc2nc(C)nc3cc(OC)c([C@H]4CC[C@H](C(=O)N5CCN(CC6CCC7(CC6)CCN(C(=O)c6ccc(OC)c(N8CCC(=O)NC8=O)c6)CC7)CC5)CC4)cc23)c1 [Example 73, 1-(2-methoxy-5-(9-((4-((1R,4R)-4-(7-methoxy-2-methyl-4-(((R)-1-(4-(2-((methylamino)methyl)phenyl)thien-2-yl)ethyl)amino)quinazolin-6-yl)cyclohexane-1-carbonyl)piperazin-1-yl)methyl)-3-azaspiro[5.5]undecane-3-carbonyl)phenyl)dihydropyrimidine-2,4(1H,3H)-dione] | < 50 nM | 80 to 100% |
| COc1cc2nc(C)nc(N[C@H](C)c3cc(N)cc(C(F)(F)F)c3)c2cc1[C@H]1CC[C@H](C(=O)N2CCN(CC3CCC4(CC3)CCN(C(=O)c3ccc(Cl)c(N5CCC(=O)NC5=O)c3)CC4)CC2)CC1 [Example 2, 1-(5-(9-((4-((1R,4R)-4-(4-(((R)-1-(3-amino-5-(trifluoromethyl)phenyl)ethyl)amino)-7-methoxy-2-methylquinazolin-6-yl)cyclohexane-1-carbonyl)piperazin-1-yl)methyl)-3-azaspiro[5.5]undecane-3-carbonyl)-2-chlorophenyl)dihydropyrimidine-2,4(1H,3H)-dione] | < 50 nM | 80 to 100% |
| COc1cc2nc(C)nc(N[C@H](C)c3cc(N)cc(C(F)(F)F)c3)c2cc1[C@H]1CC[C@H](C(=O)N2CCC(CCOCC3CCN(C(=O)c4ccc(Cl)c(N5CCC(=O)NC5=O)c4)CC3)CC2)CC1 [Example 19, 1-(5-(4-((2-(1-((1R,4R)-4-(4-(((R)-1-(3-amino-5-(trifluoromethyl)phenyl)ethyl)amino)-7-methoxy-2-methylquinazolin-6-yl)cyclohexane-1-carbonyl)piperidin-4-yl)ethoxy)methyl)piperidine-1-carbonyl)-2-chlorophenyl)dihydropyrimidine-2,4(1H,3H)-dione] | < 50 nM | 80 to 100% |
| COc1cc2nc(C)nc(N[C@H](C)c3cc(N)cc(C(F)(F)F)c3)c2cc1[C@H]1CC[C@H](C(=O)N2CCN(CCC3CCC4(CC3)CCN(C(=O)c3ccc(Cl)c(N5CCC(=O)NC5=O)c3)CC4)CC2)CC1 [Example 1, 1-(5-(9-(2-(4-((1R,4R)-4-(4-(((R)-1-(3-amino-5-(trifluoromethyl)phenyl)ethyl)amino)-7-methoxy-2-methylquinazolin-6-yl)cyclohexane-1-carbonyl)piperazin-1-yl)ethyl)-3-azaspiro[5.5]undecane-3-carbonyl)-2-chlorophenyl)dihydropyrimidine-2,4(1H,3H)-dione] | < 50 nM | 80 to 100% |
| COc1cc2nc(C)nc(N[C@H](C)c3cccc4c3CCS4(=O)=O)c2cc1[C@H]1CC[C@H](C(=O)N2CCN(CC3CCC4(CC3)CCN(C(=O)c3ccc(Cl)c(N5CCC(=O)NC5=O)c3)CC4)CC2)CC1 [Example 10, 1-(2-chloro-5-(9-((4-((1R,4R)-4-(4-(((R)-1-(1,1-dioxo-2,3-dihydrobenzo[b]thiophen-4-yl)ethyl)amino)-7-methoxy-2-methylquinazolin-6-yl)cyclohexane-1-carbonyl)piperazin-1-yl)methyl)-3-azaspiro[5.5]undecane-3-carbonyl)phenyl)dihydropyrimidine-2,4(1H,3H)-dione] | < 50 nM | 80 to 100% |
| COc1cc2nc(C)nc(N[C@H](C)c3cc(N)cc(C(F)(F)F)c3)c2cc1[C@H]1CC[C@H](C(=O)N2CCN(CCOCC3CCN(C(=O)c4ccc(Cl)c(N5CCC(=O)NC5=O)c4)CC3)CC2)CC1 [Example 33, 1-(5-(4-((2-(4-((1R,4R)-4-(4-(((R)-1-(3-amino-5-(trifluoromethyl)phenyl)ethyl)amino)-7-methoxy-2-methylquinazolin-6-yl)cyclohexane-1-carbonyl)piperazin-1-yl)ethoxy)methyl)piperidine-1-carbonyl)-2-chlorophenyl)dihydropyrimidine-2,4(1H,3H)-dione] | < 50 nM | 80 to 100% |
